# According to US10695282B2, “Functionalized transition metal dichalcogenides and composition for antioxidation containing the same” (AMOREPACIFIC CORPORATION, priority 2017, dated 2020):
# Columns and labels:
# [1] = ABTS assay, antioxidant activity of TMDs functionalized in aqueous solution; assay type: biochemical; settings: TMDs functionalized with PCL-b-PEO in aqueous solution; absorbance change at 734 nm after 12 hours; FIG. 9A; read-out: IC50 (ABTS radical scavenging)
# Method: Specifically, the antioxidant activity of four types of TMDs (MoS2, WS2, MoSe2, and WSe2) functionalized with an amphiphilic block polymer compound in an aqueous solution and Trolox (vitamin E) were measured by an ABTS (2,2′-azino-bis-(3-ethylbenzothiazoline-6-sulfonic acid)) assay.
# Specifically, 7 mM 2,2′-azino-bis-(3-ethylbenzothiazoline-6-sulfonic acid) (ABTS) and 2.45 mM potassium persulfate were mixed to make the final concentration and left in a dark place at room temperature for 24 hours. Then, the mixture was diluted with distilled water so that the absorbance value at 734 nm was […]. 100 μl of the sample of each concentration was added to 100 μl of the diluted ABTS radical solution, followed by mixing. After 12 hours, the change of absorbance was measured. The same amount of Trolox as a standard material was added for measurement.
# [2] = Photostability of antioxidant activity under solar simulator (ABTS assay); assay type: physicochemical; settings: after 3 hours, FIG. 9B
compound,measurement,setting,value
Cc1c(C)c2c(c(C)c1O)CCC(C)(C(=O)O)O2 (centres unmarked) [Trolox],IC50,[1],11.7 µM
same,antioxidant activity remaining under light,[2],50%
